Legend:
[1] = test system: monkey platelet aggregation; assay: Inhibitory effect on monkey platelet aggregation after transdermal administration; type: in vivo; details: cynomolgus monkeys, transdermal daily for four weeks (70 mg/kg; comparator 60 mg/kg), inducer 1 mM arachidonic acid
Description: The dose volume for a monkey was calculated based on its weight. The hair on the monkey's back was shaved, and the drug was evenly applied to the bare skin. The drug was administered continuously every day for four weeks. Blank blood was collected before administration, and blood was collected once a week after administration to detect the platelet aggregation ability (the inducer was 1 mM arachidonic acid).

[2] = in vitro; details: monkey, 10% monkey plasma diluent
[3] = Metabolism in 10% diluted plasma, rat; details: 10% diluted rat plasma
[4] = Metabolism in 10% diluted plasma, mouse; details: 10% diluted mouse plasma
[5] = Plasma metabolic stability test in 10% monkey plasma diluent; details: 37° C.

C0 at 0 min, 1 μM/mL [2]: 262 µg/mL
Highest acetylsalicylic acid concentration in plasma [3]: BLOQ
Highest acetylsalicylic acid concentration in plasma [4]: BLOQ
concentration of the parent drug ([5]; 10 min): 3.09 µg/mL
concentration of the parent drug ([5]; 30 min): undetectable
SMILES: CCN(CC)CCOC(=O)c1ccccc1OC(C)=O.Cl
inhibitory effect on platelet aggregation [1]: cannot inhibit platelet aggregation effectively
platelet aggregation rate [1]: about 50%

— patent US12435037B2, “Acetylsalicylic acid derivative and application thereof” (Zhejiang Hanmai Pharmaceutical Technology Co., Ltd., priority 2018, dated 2025)
